Laboratory results: publication PMC9120017, “Inhibition mechanism of the chloride channel TMEM16A by the pore blocker 1PBC” (Nature Communications, 2022)
Where two headings read alike, the source gives them in different places.

Target: T1, mouse TMEM16A mutant G558P (Mus musculus, UniProt Q8BHY3, G558P)
T1 construct: expressed in transfected cells; host or cells: HEK293T
T1 sequence (Q8BHY3 1-960 G558P): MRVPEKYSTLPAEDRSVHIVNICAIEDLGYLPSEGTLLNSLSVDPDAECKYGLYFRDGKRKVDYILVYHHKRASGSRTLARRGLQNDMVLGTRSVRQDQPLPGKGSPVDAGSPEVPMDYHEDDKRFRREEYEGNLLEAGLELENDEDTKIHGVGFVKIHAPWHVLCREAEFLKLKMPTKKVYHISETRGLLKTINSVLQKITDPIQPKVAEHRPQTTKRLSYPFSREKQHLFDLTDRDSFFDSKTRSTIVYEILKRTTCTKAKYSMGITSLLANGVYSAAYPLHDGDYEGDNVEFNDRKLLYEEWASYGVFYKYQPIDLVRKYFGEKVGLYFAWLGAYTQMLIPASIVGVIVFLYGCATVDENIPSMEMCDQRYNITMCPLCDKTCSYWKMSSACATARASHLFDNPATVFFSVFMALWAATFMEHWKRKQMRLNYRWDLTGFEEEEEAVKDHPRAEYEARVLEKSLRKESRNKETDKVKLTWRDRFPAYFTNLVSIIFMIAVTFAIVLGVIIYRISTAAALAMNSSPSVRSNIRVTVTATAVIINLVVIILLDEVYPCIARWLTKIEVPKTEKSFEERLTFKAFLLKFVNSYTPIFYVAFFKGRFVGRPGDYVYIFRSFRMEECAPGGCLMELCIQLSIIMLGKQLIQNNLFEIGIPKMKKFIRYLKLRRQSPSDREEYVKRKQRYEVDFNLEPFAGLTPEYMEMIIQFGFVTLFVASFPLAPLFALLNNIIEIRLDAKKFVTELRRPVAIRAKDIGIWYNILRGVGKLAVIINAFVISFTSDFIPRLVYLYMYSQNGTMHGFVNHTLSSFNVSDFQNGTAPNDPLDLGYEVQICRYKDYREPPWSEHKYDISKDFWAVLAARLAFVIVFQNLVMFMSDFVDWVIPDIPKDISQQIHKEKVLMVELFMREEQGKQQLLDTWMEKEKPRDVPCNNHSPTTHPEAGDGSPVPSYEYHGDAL
Experiment: Inside-out patch recording of 1PBC block, mutant G558P
Format: cell-based
Conditions: for remaining activity at 1 µM: 1PBC conc 1; for remaining activity at 1 µM / remaining activity at 3 µM / remaining activity at 10 µM / remaining activity at 30 µM / remaining activity at 100 µM: read-out: relative current in 1PBC (avr); for remaining activity at 3 µM: 1PBC conc 3; for remaining activity at 10 µM: 1PBC conc 10; for remaining activity at 30 µM: 1PBC conc 30; for remaining activity at 100 µM: 1PBC conc 100
Description: HEK293T cells (ATCC CRL-1573) were maintained in Dulbecco’s modified Eagle’s medium (DMEM; Sigma-Aldrich) supplemented with 10 U ml^−1 penicillin, 0.1 mg ml^−1 streptomycin (Sigma-Aldrich), 2 mM L-glutamine (Sigma-Aldrich), and 10% FBS (Sigma-Aldrich) in a humidified atmosphere containing 5% CO2 at 37 °C. HEK293S GnTI^− cells (ATCC CRL-3022) were maintained in HyClone HyCell TransFx-H medium (GE Healthcare) supplemented with 10 U ml^−1 penicillin, 0.1 mg ml^−1 streptomycin, 4 mM L-glutamine, 0.15% poloxamer 188 (Sigma-Aldrich), and 1% FBS in an atmosphere containing 5% CO2 at 185 rpm at 37 °C. The ac splice variant of mouse TMEM16A (UniProt ID: Q8BHY3), mouse TMEM16B (UniProt ID: Q8CFW1), or mouse TMEM16F (UniProt ID: Q6P9J9) bearing a 3C cleavage site, a Venus YFP, a Myc tag, and a Streptavidin-binding peptide (SBP) downstream of the open reading frame in a modified pcDNA3.1 vector (Invitrogen) were used as described previously[21],[31]. Mutations were introduced using a modified QuikChange method[58] and were verified by sequencing.
HEK293T cells were transfected with 3–4 μg DNA per 6 cm Petri dish using the calcium phosphate co-precipitation method and were used within 24–96 h after transfection. Recordings were performed on inside-out patches excised from HEK293T cells expressing the construct of interest. Patch pipettes were pulled from borosilicate glass capillaries (O.D. 1.5 mm, I.D. 0.86 mm, Sutter Instrument) and were fire-polished with a microforge (Narishige) before use. Pipette resistance was typically 3–8 MΩ when filled with the recording solutions detailed below. Seal resistance was typically 4 GΩ or higher. Voltage-clamp recordings were made using Axopatch 200B, Digidata 1550, and Clampex 10.7 (Molecular Devices). Analog signals were filtered with the in-built 4-pole Bessel filter at 10 kHz and were digitized at 20 kHz. Solution exchange was achieved using a gravity-fed system through a theta glass pipette mounted on an ultra-fast piezo-driven stepper (Siskiyou). […] All recordings were performed at 20 °C.
A symmetrical ionic condition was used throughout. Stock solution with Ca^2+-EGTA contained 150 mM NaCl, 5.99 mM Ca(OH)2, 5 mM EGTA, and 10 mM HEPES at pH 7.40. Stock solution with EGTA contained 150 mM NaCl, 5 mM EGTA, and 10 mM HEPES at pH 7.40. Free Ca^2+ concentrations were adjusted by mixing the stock solutions at the required ratios calculated using the WEBMAXC program (http://web.stanford.edu/~cpatton/webmaxcS.htm). Patch pipettes were filled with the stock solution with Ca^2+-EGTA, which has a free Ca^2+ concentration of 1 mM. 1PBC (ChemBridge) stock was reconstituted in anhydrous DMSO (Sigma-Aldrich) at 100 mM and stored at −20 °C. Working solutions with 1PBC were prepared by serial dilution. Unless otherwise stated, experiments were performed at a saturating Ca^2+ concentration as shown in Supplementary Table 1 and the primary data were corrected for current rundown as described previously[21],[25].
Concentration-response relations, obtained from the ratio of the I-V plots before and after the application of the blocker, were fitted to the Hill equation,1 I/Imax=1/1+IC50/[blocker]^h where I/Imax is the normalized current responses, IC50 defines the concentration at which inhibition is at its half-maximum, and h is the Hill coefficient.

N#Cc1c(C(F)(F)F)cc(O)n2c1nc1ccccc12 [1PBC]
IC50 (0 mV, 15 µM Ca2+): 6.23 µM | remaining activity at 1 µM (0 mV): 83.9% | remaining activity at 3 µM (0 mV): 66.6% | remaining activity at 10 µM (0 mV): 39.1% | remaining activity at 30 µM (0 mV): 18.8% | remaining activity at 100 µM (0 mV): 7.07% | I/Imax_+80mV (1 μM 1PBC): 0.7511 | I/Imax_-80mV (1 μM 1PBC, -80 mV): 0.9508 | I/Imax_+80mV (3 μM 1PBC): 0.5097 | I/Imax_-80mV (3 μM 1PBC, -80 mV): 0.8567 | I/Imax_+80mV (10 μM 1PBC): 0.2409 | I/Imax_-80mV (10 μM 1PBC, -80 mV): 0.6177 | Effect of mutation G558P on block by 1PBC (15 µM Ca2+): did not interfere with block | I/Imax_+80mV (30 μM 1PBC): 0.1115 | I/Imax_-80mV (30 μM 1PBC, -80 mV): 0.3696 | I/Imax_+80mV (100 μM 1PBC): 0.03071 | I/Imax_-80mV (100 μM 1PBC, -80 mV): 0.1483 | IC50 (20 mV, 15 µM Ca2+): 4.87 µM | remaining activity at 1 µM (20 mV): 81.1% | remaining activity at 3 µM (20 mV): 60.9% | remaining activity at 10 µM (20 mV): 34% | remaining activity at 30 µM (20 mV): 15.5% | remaining activity at 100 µM (20 mV): 5.33% | IC50 (40 mV, 15 µM Ca2+): 3.94 µM | remaining activity at 1 µM (40 mV): 78.3% | remaining activity at 3 µM (40 mV): 56.7% | remaining activity at 10 µM (40 mV): 28.5% | remaining activity at 30 µM (40 mV): 13.4% | remaining activity at 100 µM (40 mV): 4.84% | IC50 (60 mV, 15 µM Ca2+): 3.4 µM | remaining activity at 1 µM (60 mV): 75.9% | remaining activity at 3 µM (60 mV): 52.9% | remaining activity at 10 µM (60 mV): 26.1% | remaining activity at 30 µM (60 mV): 12% | remaining activity at 100 µM (60 mV): 3.75% | IC50 (80 mV, 15 µM Ca2+): 3.14 µM | remaining activity at 1 µM (80 mV): 75.1% | remaining activity at 3 µM (80 mV): 51% | remaining activity at 10 µM (80 mV): 24.1% | remaining activity at 30 µM (80 mV): 11.2% | remaining activity at 100 µM (80 mV): 3.07% | IC50 (100 mV, 15 µM Ca2+): 3.03 µM | remaining activity at 1 µM (100 mV): 75.6% | remaining activity at 3 µM (100 mV): 50.3% | remaining activity at 10 µM (100 mV): 22.1% | remaining activity at 30 µM (100 mV): 10.7% | remaining activity at 100 µM (100 mV): 2.38% | IC50 (120 mV, 15 µM Ca2+): 3.26 µM | remaining activity at 1 µM (120 mV): 77.2% | remaining activity at 3 µM (120 mV): 52.2% | remaining activity at 10 µM (120 mV): 23.4% | remaining activity at 30 µM (120 mV): 10.7% | remaining activity at 100 µM (120 mV): 2.42% | IC50 (140 mV, 15 µM Ca2+): 3.86 µM | remaining activity at 1 µM (140 mV): 81.4% | remaining activity at 3 µM (140 mV): 57% | remaining activity at 10 µM (140 mV): 25.2% | remaining activity at 30 µM (140 mV): 12% | remaining activity at 100 µM (140 mV): 3.17% | IC50 (-20 mV, 15 µM Ca2+): 7.94 µM | remaining activity at 1 µM (-20 mV): 86.7% | remaining activity at 3 µM (-20 mV): 72.3% | remaining activity at 10 µM (-20 mV): 44.1% | remaining activity at 30 µM (-20 mV): 22.2% | remaining activity at 100 µM (-20 mV): 8.82% | IC50 (-40 mV, 15 µM Ca2+): 10.4 µM | remaining activity at 1 µM (-40 mV): 89.5% | remaining activity at 3 µM (-40 mV): 77.5% | remaining activity at 10 µM (-40 mV): 50.6% | remaining activity at 30 µM (-40 mV): 26.7% | remaining activity at 100 µM (-40 mV): 9.6% | IC50 (-60 mV, 15 µM Ca2+): 13.4 µM | remaining activity at 1 µM (-60 mV): 92.1% | remaining activity at 3 µM (-60 mV): 80.7% | remaining activity at 10 µM (-60 mV): 56.7% | remaining activity at 30 µM (-60 mV): 32.1% | remaining activity at 100 µM (-60 mV): 12.3% | IC50 (-80 mV, 15 µM Ca2+): 17.1 µM | remaining activity at 1 µM (-80 mV): 95.1% | remaining activity at 3 µM (-80 mV): 85.7% | remaining activity at 10 µM (-80 mV): 61.8% | remaining activity at 30 µM (-80 mV): 37% | remaining activity at 100 µM (-80 mV): 14.8% | IC50 (-100 mV, 15 µM Ca2+): 21.1 µM | remaining activity at 1 µM (-100 mV): 96.1% | remaining activity at 3 µM (-100 mV): 88.1% | remaining activity at 10 µM (-100 mV): 66.8% | remaining activity at 30 µM (-100 mV): 41.5% | remaining activity at 100 µM (-100 mV): 17.8% | IC50 (-120 mV, 15 µM Ca2+): 25.4 µM | remaining activity at 1 µM (-120 mV): 98.5% | remaining activity at 3 µM (-120 mV): 90.8% | remaining activity at 10 µM (-120 mV): 71.2% | remaining activity at 30 µM (-120 mV): 45.8% | remaining activity at 100 µM (-120 mV): 19.8% | IC50 (-140 mV, 15 µM Ca2+): 30 µM | remaining activity at 1 µM (-140 mV): 100% | remaining activity at 3 µM (-140 mV): 92.8% | remaining activity at 10 µM (-140 mV): 74.7% | remaining activity at 30 µM (-140 mV): 49.7% | remaining activity at 100 µM (-140 mV): 22.2% | IC50 (G558P, V 0 mV): 6.23 µM | IC50 (G558P, V 20 mV): 4.87 µM | IC50 (G558P, V 40 mV): 3.94 µM | IC50 (G558P, V 60 mV): 3.4 µM | IC50 (G558P, V 80 mV): 3.14 µM | IC50 (G558P, V 100 mV): 3.03 µM | IC50 (G558P, V 120 mV): 3.26 µM | IC50 (G558P, V 140 mV): 3.86 µM | IC50 (G558P, V -20 mV): 7.94 µM | IC50 (G558P, V -40 mV): 10.4 µM | IC50 (G558P, V -60 mV): 13.4 µM | IC50 (G558P, V -80 mV): 17.1 µM | IC50 (G558P, V -100 mV): 21.1 µM | IC50 (G558P, V -120 mV): 25.4 µM | IC50 (G558P, V -140 mV): 30 µM
